Patent US12016864B2, “LOX enzyme inhibiting methods and compositions” (ANOVIA BIOSCIENCES, INC., priority 2021, dated 2024)

Each compound was assayed against T1, Recombinant human LOXL2 (lysyl oxidase like 2) (Homo sapiens, UniProt Q9Y4K0) (assay: LOXL2 inhibition assay, fluorometric (cadaverine / HRP / Amplex Red)). Conditions: recombinant human LOXL2 130 nM; 30 min preincubation at 37° C.; 2.5 mM cadaverine; read-out: Activity Range LOXL2.
T1 construct: purchased R&D systems
T1 sequence (Q9Y4K0 26-774): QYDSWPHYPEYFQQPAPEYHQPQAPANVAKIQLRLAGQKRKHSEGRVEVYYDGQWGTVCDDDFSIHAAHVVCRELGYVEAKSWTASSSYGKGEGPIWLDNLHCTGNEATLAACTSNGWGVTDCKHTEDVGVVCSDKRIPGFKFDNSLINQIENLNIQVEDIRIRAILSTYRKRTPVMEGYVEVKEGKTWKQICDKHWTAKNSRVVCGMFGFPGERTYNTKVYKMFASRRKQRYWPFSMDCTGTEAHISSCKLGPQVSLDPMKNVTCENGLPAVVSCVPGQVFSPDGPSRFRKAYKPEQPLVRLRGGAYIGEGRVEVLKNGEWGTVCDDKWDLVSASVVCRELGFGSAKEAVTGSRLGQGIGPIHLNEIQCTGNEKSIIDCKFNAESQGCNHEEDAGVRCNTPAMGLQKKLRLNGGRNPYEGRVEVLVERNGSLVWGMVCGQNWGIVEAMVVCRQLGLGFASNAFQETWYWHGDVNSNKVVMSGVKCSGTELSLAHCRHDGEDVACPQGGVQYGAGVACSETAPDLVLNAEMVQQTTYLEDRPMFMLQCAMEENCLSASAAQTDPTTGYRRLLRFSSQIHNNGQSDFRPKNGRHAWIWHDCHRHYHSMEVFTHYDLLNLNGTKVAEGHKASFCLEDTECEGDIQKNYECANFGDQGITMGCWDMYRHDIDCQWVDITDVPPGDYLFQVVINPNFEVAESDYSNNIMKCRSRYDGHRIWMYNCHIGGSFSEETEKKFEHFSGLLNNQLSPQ
Format: biochemical
Outline: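 Recombinant human LOXL2 or LOXL3 in 1.2 M urea, 50 mM sodium borate pH 8.0, 10 mM CaCl, preincubated with compound 30 min at 37 °C. Cadaverine substrate added; H2O2 detected by HRP/Amplex Red fluorescence, read kinetically for 60 min at 37 °C. Initial-rate slopes, background-subtracted and normalised to DMSO, fitted to a 4-parameter curve with bottom fixed at 0.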

IC50, ≤ 500 nM:
NCc1ccnc(S(=O)(=O)C[C@@H]2C[C@H](c3ccccc3)CN2S(=O)(=O)N2CCOCC2)c1 (racemic) [Example 195, Cis-(2-(((1-(Morpholinosulfonyl)-4-phenylpyrrolidin-2-yl)methyl)sulfonyl)pyridin-4-yl)methanamine 2,2,2-trifluoroacetate]
NCc1ccnc(S(=O)(=O)C[C@@H]2C[C@H](c3ccccc3)CN2S(=O)(=O)N2CCOCC2)c1 (single isomer, unassigned) [Example 195B]
NCc1ccnc(S(=O)(=O)C[C@H]2C[C@@H](c3ccccc3)CN2S(=O)(=O)N2CCOCC2)c1 (single isomer, unassigned) [Example 195A]
NCc1ccnc(S(=O)(=O)C[C@@H]2C[C@H](c3ccccc3)CN2S(=O)(=O)N2CCS(=O)(=O)CC2)c1 [Example 196A, 4-(((2S,4R)-2-(((4-(aminomethyl)pyridin-2-yl)sulfonyl)methyl)-4-phenylpyrrolidin-1-yl)sulfonyl)thiomorpholine 1,1-dioxide 2,2,2-trifluoroacetate]
NCc1ccnc(S(=O)(=O)C[C@@H]2C[C@H](c3ccccc3)CN2S(=O)(=O)N2CCS(=O)(=O)CC2)c1 (racemic) [Example 196, cis-4-((2-(((4-(Aminomethyl)pyridin-2-yl)sulfonyl)methyl)-4-phenylpyrrolidin-1-yl)sulfonyl)thiomorpholine 1,1-dioxide 2,2,2-trifluoroacetate]
NCc1ccnc(S(=O)(=O)C[C@H]2C[C@@H](c3ccccc3)CN2S(=O)(=O)N2CCS(=O)(=O)CC2)c1 [Example 196B, 4-(((2R,4S)-2-(((4-(aminomethyl)pyridin-2-yl)sulfonyl)methyl)-4-phenylpyrrolidin-1-yl)sulfonyl)thiomorpholine 1,1-dioxide 2,2,2-trifluoroacetate]
